# ChEMBL document CHEMBL1201862, “PubChem BioAssay data set” (2004)
#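 Interpolation was linear, between the two tested concentrations surrounding the appropriate level; five concentrations were tested over 48 hours in 96-well plates. GI50 marks 50% less growth.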 Calls of active or inactive are those of the source. No stated cut-off is given here; in the data, active = GI50 up to about 1.1 µM and inactive = higher.
# Legend:
# Test in all cases: inhibition of tumour cell growth, NCI panel, 48 h
# XF498 = tested on: XF498
# KM-20L2 = tested on: KM-20L2
# DLD-1 = tested on: DLD-1
# DMS-273 = tested on: DMS-273
# RXF 631 = tested on: RXF 631
# M19-MEL = tested on: M19-MEL
# DMS-114 = tested on: DMS-114
# HOP-18 = tested on: HOP-18
# MDA-N = tested on: MDA-N
SMILES,GI50 (XF498),GI50 (KM-20L2),GI50 (DLD-1),GI50 (DMS-273),GI50 (RXF 631),GI50 (M19-MEL),GI50 (DMS-114),GI50 (HOP-18),GI50 (MDA-N)
O=C(c1ccccc1)c1ccc2c(c1)N=C(c1ccc(Cl)c(Cl)c1)CC(c1ccc3ccccc3c1)N2 (stereo not given),> 100 µM (inactive),> 100 µM (inactive),> 100 µM (inactive),> 100 µM (inactive),> 100 µM (inactive),> 100 µM (inactive),> 100 µM (inactive),–,–
CC12CCCCC1(C)C2Sc1ccccc1 (stereo not given),27.3 µM (inactive),> 100 µM (inactive),61.2 µM (inactive),47.2 µM (inactive),51.5 µM (inactive),35.9 µM (inactive),30.7 µM (inactive),63.1 µM (inactive),–
O=C1c2cccc(NCCNCCO)c2C(=O)c2cccc(NCCNCCO)c21,0.556 µM (active),1.18 µM (inactive),3.18 µM (inactive),2.91 µM (inactive),3.13 µM (inactive),–,0.368 µM (active),2.15 µM (inactive),0.215 µM (active)
CCOc1ccccc1NC(=O)C1=C(C)NC(C)=C(C(=O)Nc2ccccc2OCC)C1c1ccc([N+](=O)[O-])cc1,–,> 100 µM (inactive),> 100 µM (inactive),71.4 µM (inactive),> 100 µM (inactive),> 100 µM (inactive),65.9 µM (inactive),> 100 µM (inactive),–
COc1c(OC(C)=O)ccc(/C=C2\N=C(C)OC2=O)c1[N+](=O)[O-],–,> 100 µM (inactive),> 100 µM (inactive),> 100 µM (inactive),> 100 µM (inactive),> 100 µM (inactive),–,> 100 µM (inactive),–
CCCCNC(=O)C1C(=O)N(CCCC)C(=O)/C1=N\N (stereo not given),> 100 µM (inactive),> 100 µM (inactive),–,> 100 µM (inactive),> 100 µM (inactive),> 100 µM (inactive),> 100 µM (inactive),> 100 µM (inactive),–
ClC(Cl)[Si]12OCCN(CCO1)CCO2,–,–,> 100 µM (inactive),> 100 µM (inactive),> 100 µM (inactive),–,> 100 µM (inactive),> 100 µM (inactive),–
COc1ccc2[nH]c(=O)cc(C)c2c1[N+](=O)[O-],> 100 µM (inactive),> 100 µM (inactive),84.1 µM (inactive),> 100 µM (inactive),> 100 µM (inactive),> 100 µM (inactive),> 100 µM (inactive),–,–
COc1ccc(C2C(C#N)=C(O)NC(O)=C2C#N)cc1OC,> 100 µM (inactive),> 100 µM (inactive),–,> 100 µM (inactive),> 100 µM (inactive),> 100 µM (inactive),–,> 100 µM (inactive),–
CCC12CCC[C@@]13C=C[C@H](O3)C(C)(C)C2=O (stereo not given in full),–,> 100 µM (inactive),> 100 µM (inactive),> 100 µM (inactive),> 100 µM (inactive),> 100 µM (inactive),> 100 µM (inactive),> 100 µM (inactive),–
O[C@H]1[C@H](O)[C@@H](O)CN2CC[C@H](O)[C@H]12 [CASTANOSPERMINE],> 100 µM (inactive),> 100 µM (inactive),> 100 µM (inactive),> 100 µM (inactive),–,32.8 µM (inactive),> 100 µM (inactive),> 100 µM (inactive),–
